Data as given in US20150148256A1, “BIOLUMINESCENCE IMAGING-BASED SCREENING ASSAY AND INHIBITORS OF ABCG2” (THE JOHNS HOPKINS UNIVERSITY, priority 2008, published 2015).
Structures can show the parent of a compound that is named as a salt. Where two headings read alike, the source gives them in different places.

What was measured:
NCI-H460 parent line = assay: MTX survival of parent NCI-H460 cells (XTT); type: cell-based, human; conditions: three days
[1] = test system: ABCG2-overexpressing NCI-H460/MX20 cells
ABCG2 [2] = molecular target: T1, ABCG2 (Homo sapiens, UniProt Q9UNQ0); assay: Bioluminescence imaging (BLI) assay in HEK293/ABCG2/fLuc cells
T1 sequence (Q9UNQ0 1-655): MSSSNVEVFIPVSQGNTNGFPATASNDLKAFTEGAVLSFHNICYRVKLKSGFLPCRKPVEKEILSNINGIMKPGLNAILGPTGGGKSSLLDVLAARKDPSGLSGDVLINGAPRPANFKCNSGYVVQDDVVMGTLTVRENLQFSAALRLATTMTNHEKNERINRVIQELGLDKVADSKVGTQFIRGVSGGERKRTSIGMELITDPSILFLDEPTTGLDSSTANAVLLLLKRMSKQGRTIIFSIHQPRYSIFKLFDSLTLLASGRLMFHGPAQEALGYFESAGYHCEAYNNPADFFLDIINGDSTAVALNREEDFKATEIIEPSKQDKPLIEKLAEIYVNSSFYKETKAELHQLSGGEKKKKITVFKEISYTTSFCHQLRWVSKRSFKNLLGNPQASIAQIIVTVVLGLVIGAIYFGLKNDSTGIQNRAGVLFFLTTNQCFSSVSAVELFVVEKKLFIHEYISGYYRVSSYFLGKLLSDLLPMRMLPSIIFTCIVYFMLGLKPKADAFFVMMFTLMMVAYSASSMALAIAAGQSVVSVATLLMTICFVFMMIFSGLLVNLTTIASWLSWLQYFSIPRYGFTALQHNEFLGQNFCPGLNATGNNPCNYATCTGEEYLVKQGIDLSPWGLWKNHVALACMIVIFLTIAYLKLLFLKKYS
In short: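 Light output from HEK293/ABCG2/fLuc cells plated at 4×10^4 per well, treated with compounds, imaged every 5 min for ~1 h. Values are signal-to-background ratios versus solvent control at 40 min, indicating ABCG2 inhibition. Dose range 0.001 μM-100 μM with 50 μg/mL D-luciferin for selected compounds.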

ABCG2 [3] = molecular target: T1, ABCG2; conditions: 1 h, 20 μM
[4] = molecular target: T2, MRP1 (Multiple Drug Resistance Protein 1) (Homo sapiens, UniProt P33527); assay: Colchicine resensitization assay in MDCKII cells overexpressing MRP1; type: cell-based; conditions: for MRP1 inhibition: even at relatively high concentration (30 μM)
T2 construct: expressed in transfected cells; host or cells: MDCKII
T2 sequence (P33527 whole entry): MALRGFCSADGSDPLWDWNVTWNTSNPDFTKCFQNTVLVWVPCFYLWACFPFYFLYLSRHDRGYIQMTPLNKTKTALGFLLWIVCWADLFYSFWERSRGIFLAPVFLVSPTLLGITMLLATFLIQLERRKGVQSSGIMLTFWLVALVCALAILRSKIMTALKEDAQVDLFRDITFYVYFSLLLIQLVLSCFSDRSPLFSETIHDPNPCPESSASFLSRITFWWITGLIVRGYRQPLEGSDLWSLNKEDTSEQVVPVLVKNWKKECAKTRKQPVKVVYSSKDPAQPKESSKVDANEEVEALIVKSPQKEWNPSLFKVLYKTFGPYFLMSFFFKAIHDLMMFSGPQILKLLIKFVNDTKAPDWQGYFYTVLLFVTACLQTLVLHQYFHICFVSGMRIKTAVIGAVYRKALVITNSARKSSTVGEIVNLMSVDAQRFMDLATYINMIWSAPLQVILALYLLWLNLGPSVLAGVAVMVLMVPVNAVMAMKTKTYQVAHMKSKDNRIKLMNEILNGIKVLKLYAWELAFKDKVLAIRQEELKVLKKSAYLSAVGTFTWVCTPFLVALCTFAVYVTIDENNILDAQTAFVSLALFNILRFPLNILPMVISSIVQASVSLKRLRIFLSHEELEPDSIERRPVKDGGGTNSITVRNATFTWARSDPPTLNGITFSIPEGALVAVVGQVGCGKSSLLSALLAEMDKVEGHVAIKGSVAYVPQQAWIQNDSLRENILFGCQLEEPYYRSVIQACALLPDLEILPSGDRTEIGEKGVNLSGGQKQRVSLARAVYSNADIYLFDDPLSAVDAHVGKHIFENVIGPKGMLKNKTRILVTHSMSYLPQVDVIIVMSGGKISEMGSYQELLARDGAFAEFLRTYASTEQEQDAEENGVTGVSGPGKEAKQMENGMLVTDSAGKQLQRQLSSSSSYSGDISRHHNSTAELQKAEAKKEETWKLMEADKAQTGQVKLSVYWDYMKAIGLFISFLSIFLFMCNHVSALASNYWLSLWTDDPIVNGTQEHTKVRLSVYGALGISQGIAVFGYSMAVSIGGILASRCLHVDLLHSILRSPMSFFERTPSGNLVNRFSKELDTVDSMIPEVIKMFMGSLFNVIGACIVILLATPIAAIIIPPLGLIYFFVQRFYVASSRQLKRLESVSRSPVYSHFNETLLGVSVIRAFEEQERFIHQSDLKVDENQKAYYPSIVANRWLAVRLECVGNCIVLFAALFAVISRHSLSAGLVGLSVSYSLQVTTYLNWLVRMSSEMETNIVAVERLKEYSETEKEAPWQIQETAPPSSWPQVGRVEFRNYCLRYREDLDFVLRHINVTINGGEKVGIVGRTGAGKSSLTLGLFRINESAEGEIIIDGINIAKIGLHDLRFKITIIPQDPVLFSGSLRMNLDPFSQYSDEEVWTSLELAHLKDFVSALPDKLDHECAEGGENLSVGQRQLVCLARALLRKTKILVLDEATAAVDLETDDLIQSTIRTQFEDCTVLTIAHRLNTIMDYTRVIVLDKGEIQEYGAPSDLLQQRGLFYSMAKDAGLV
Experimental: The ABC transporter-inhibiting ability of the potential inhibitors identified were further tested by evaluating their ability to resensitize ABCG2-overexpressing NCI-H460/MX20 cells to MTX, or MDCKII cells overexpressing Pgp or MRP1, to Col. Cells were plated in 96-well plates at 1×10^4 per well and allowed to attach. […] Colchicine was added at 1 μM for MDCKII/Pgp cells and 0.3 μM for MDCKII/MRP1 cells. […] In brief, 1 mg/ml XTT (Polysciences, Warrington, Pa.) was mixed with 0.025 mM PMS (Sigma), and 50 μl of the mixture was added to each well and incubated for 4 hours at 37° C. After the plates were mixed on a plate shaker, absorbance at 450 nm was measured. All results were normalized to a percentage of absorbance obtained in controls.
MDCKII cells overexpressing Pgp or MRP1 were incubated for two days in medium containing 1 μM (for Pgp) or 0.3 μM (for MRP1) Col and increasing concentrations of each ABCG2 inhibitor.

ABCG2 [5] = molecular target: T1, ABCG2; design: expressed in transfected cells; host or cells: HEK293; conditions: cited from earlier work
ABCG2 [6] = molecular target: T1, ABCG2; design: expressed in transfected cells; host or cells: HEK293; conditions: read-out: IC50, ability to inhibit ATPase, cited from earlier work
ABCG2 [7] = molecular target: T1, ABCG2; design: expressed in transfected cells; host or cells: HEK293; conditions: reference (23); read-out: IC50, pheophorbide A fluorescent dye uptake assay; cited from earlier work
ABCG2 [8] = molecular target: T1, ABCG2; assay: BODIPY-prazosin uptake assay (flow cytometry) in HEK293/ABCG2 cells; conditions: compound 20 μM; for BP (BODIPY-prazosin dye uptake assay): 1 h; for BODIPY-prazosin assay result: flow cytometry
[9] = compound 1 μM with 15 μM MTX, two days
[10] = compound 20 μM, H460/MX20 cells
[11] = Table 2, HEK293/ABCG2/fLuc cells, compound approximately 17 μM, ~50 μg/mL D-luciferin, 40 min time point
[12] = Table 4, approximately 17 μM, 40 min time point

O=C1c2c(O)ccc(O)c2C(=O)c2c(NCCNCCO)ccc(NCCNCCO)c21 [MTX, mitoxantrone]
survival of parent cells (NCI-H460 parent line; 15 μM MTX alone): < 20%
survival of parent cells (NCI-H460 parent line; 30 μM MTX alone): ~9%
survival of H460/MX20 cells ([1]; 15 μM MTX alone, three days): 80%
survival of H460/MX20 cells ([1]; 30 μM MTX alone, three days): ~40%

CC(C)(C(=O)c1cccnc1)c1cccnc1 [metyrapone, 2-methyl-1,2-dipyridin-3-yl-propan-1-one]
MTX (mitoxantrone resensitization assay) ([1]; H460/MX20 cells with MTX): Y
Fold (BLI enhancement), previously unknown compounds (ABCG2 [2]; human, 40 min, 17 μM): 6.3 fold
Fold (BLI enhancement, S/B ratio over control) (ABCG2 [2]; human, 40 min, 17 μM): 6.3 fold

CCN(CC)CCCC(C)Nc1c2ccc(Cl)cc2nc2ccc(OC)cc12 (centres unmarked) [quinacrine]
BODIPY-prazosin assay result (ABCG2 [3]): confirmed as an ABCG2 inhibitor
cytotoxicity in the MTX resensitization assay [1]: too cytotoxic to be tested
Fold (BLI enhancement), previously unknown compounds (ABCG2 [2]; human, 40 min, 17 μM): 10.6 fold
Fold (BLI enhancement, S/B ratio over control) (ABCG2 [2]; human, 40 min, 17 μM): 10.6 fold

O=C(OCC(O)CO)c1ccccc1Nc1ccnc2cc(Cl)ccc12 (centres unmarked) [glafenine]
concentration from which MDCKII/MRP1 cells are resensitized to Col ([4]; 0.3 μM Col, two days): 10 µM
MTX (mitoxantrone resensitization assay) [1]: Y
concentration that effectively resensitizes H460/MX20 cells to MTX [1]: ≤ 0.001 µM
relative potency in dose-dependent MTX resensitization [1]: more potent ABCG2 inhibitor than FTC, doxazosin mesylate, clebopride maleate, and flavoxate hydrochloride
survival of H460/MX20 cells [1]: 13%
IC50 (ABCG2 [2]): 3200 nM
BLI signal enhancement (ABCG2 [2]; human, 40 min, 17 μM): ~20 fold
Fold (BLI enhancement), previously unknown compounds (ABCG2 [2]; human, 40 min, 17 μM): 20.6 fold
Fold (BLI enhancement, S/B ratio over control) (ABCG2 [2]; human, 40 min, 17 μM): 20.6 fold

Cc1c(-c2ccccc2)oc2c(C(=O)OCCN3CCCCC3)cccc2c1=O [flavoxate hydrochloride]
MRP1 inhibition [4]: weak
MTX (mitoxantrone resensitization assay) ([1]; H460/MX20 cells with MTX): Y
IC50 (ABCG2 [2]): 20000 nM
Fold (BLI enhancement), previously unknown compounds (ABCG2 [2]; human, 40 min, 17 μM): 11.2 fold
Fold (BLI enhancement, S/B ratio over control) (ABCG2 [2]; human, 40 min, 17 μM): 11.2 fold

C[C@H]1O[C@@H](O[C@H]2[C@@H](O)C[C@H](O[C@H]3[C@@H](O)C[C@H](O[C@H]4CC[C@@]5(C)[C@H](CC[C@@H]6[C@@H]5CC[C@]5(C)[C@@H](C7=CC(=O)OC7)CC[C@]65O)C4)O[C@@H]3C)O[C@@H]2C)C[C@H](O)[C@@H]1O [digitoxin]
reduction of survival rate of H460/MX20 cells [1]: did not reduce the survival rate of H460/MX20 cells significantly
BLI signal enhancement at lower concentrations (ABCG2 [2]): enhance BLI signal minimally
Fold (BLI enhancement), previously unknown compounds (ABCG2 [2]; human): 5.7 fold
Fold (BLI enhancement, S/B ratio over control) (ABCG2 [2]; human): 5.7 fold

COc1ccc2c3c([nH]c2c1)[C@H](C=C(C)C)N1C(=O)[C@@H]2CCCN2C(=O)[C@@H]1C3 [FTC, Fumitremorgin C]
IC50 (ABCG2 [5]; literature, read-out: IC50 values reported in literature): 300 to 1300 nM
concentration at which the plateau of the ABCG2-inhibiting effect is reached (ABCG2 [5]; previous reports): 10 µM
resensitization of H460/MX20 cells to MTX ([1]; FTC positive control (10 μM), MTX 15 or 30 μM, three days): restored the sensitivity of H460/MX20 cells to MTX and significantly reduced their survival rate
IC50 (ABCG2 [6]; Ozvegy et al. (21)): 1300 nM
IC50 (ABCG2 [6]; Ozvegy et al. (22)): 400 nM
IC50 (ABCG2 [6]; Robey et al. (13)): 1000 nM
IC50 (ABCG2 [2]; read-out: IC50 as an ABCG2 inhibitor (BLI), same assay, using the 30 min data): 6600 nM
IC50 (ABCG2 [7]): 800 nM

CC(=O)c1ccc2c(c1)N(CCCN(C)C)c1ccccc1S2 [acepromazine]
MTX (mitoxantrone resensitization assay) ([1]; H460/MX20 cells with MTX): Y
Fold (BLI enhancement), previously unknown compounds (ABCG2 [2]; human, 40 min, 17 μM): 6.2 fold
Fold (BLI enhancement, S/B ratio over control) (ABCG2 [2]; human, 40 min, 17 μM): 6.2 fold

C=C(C)[C@H]1Cc2c(ccc3c2O[C@@H]2COc4cc(OC)c(OC)cc4[C@@H]2C3=O)O1 [rotenone]
BP (BODIPY-prazosin dye uptake assay) (ABCG2 [8]): Y
BODIPY-prazosin assay result (ABCG2 [8]): positive
MTX (mitoxantrone resensitization assay) [1]: Y
Fold (BLI enhancement), previously unknown compounds (ABCG2 [2]; human): 6.7 fold
Fold (BLI enhancement, S/B ratio over control) (ABCG2 [2]; human): 6.7 fold

CCN(CC)CCOc1ccc(C(=C(Cl)c2ccccc2)c2ccccc2)cc1 [clomiphene citrate]
resensitization of H460/MX20 cells to MTX [1, 9]: showed resensitization of H460/MX20 cells to MTX
Fold (BLI enhancement), previously unknown compounds (ABCG2 [2]; human, 40 min, 17 μM): 6.7 fold
Fold (BLI enhancement, S/B ratio over control) (ABCG2 [2]; human, 40 min, 17 μM): 6.7 fold

verteporfin
BP (BODIPY-prazosin dye uptake assay) (ABCG2 [8]): N
BODIPY-prazosin assay result (ABCG2 [8]): negative
MTX (mitoxantrone resensitization assay) ([1]; H460/MX20 cells with MTX): Y
resensitization of H460/MX20 cells to MTX [1, 9]: showed resensitization of H460/MX20 cells to MTX
cytotoxicity in the MTX resensitization assay [1, 10]: too cytotoxic to be tested
cytotoxicity in the MTX resensitization assay ([1]; compound 20 μM, H460/MX20 cells, listed as Verteporfin): too cytotoxic to validate by MTX assay
Fold (BLI enhancement, S/B ratio over control) (ABCG2 [2]; [11]): 11.3 fold
Fold (BLI enhancement), previously unknown compounds (ABCG2 [2]; [12]): 11.3 fold

gramicidin
resensitization of H460/MX20 cells to MTX [1, 9]: showed resensitization of H460/MX20 cells to MTX
cytotoxicity in the MTX resensitization assay [1, 10]: too cytotoxic to be tested
Fold (BLI enhancement, S/B ratio over control) (ABCG2 [2]; [11]): 6.9 fold
Fold (BLI enhancement), previously unknown compounds (ABCG2 [2]; [12]): 6.9 fold

O=C(c1ccc(OCCN2CCCCC2)cc1)c1c(-c2ccc(O)cc2)sc2cc(O)ccc12 [raloxifene hydrochloride]
MTX (mitoxantrone resensitization assay) ([1]; H460/MX20 cells with MTX): Y
Fold (BLI enhancement), previously unknown compounds (ABCG2 [2]; human, 40 min, 17 μM): 5.4 fold
Fold (BLI enhancement, S/B ratio over control) (ABCG2 [2]; human, 40 min, 17 μM): 5.4 fold

COc1cc(N)c(Cl)cc1C(=O)NC1CCN(Cc2ccccc2)CC1 [clebopride maleate]
MRP1 inhibition [4]: weak
MTX (mitoxantrone resensitization assay) ([1]; H460/MX20 cells with MTX): Y
IC50 (ABCG2 [2]): 8200 nM
Fold (BLI enhancement), previously unknown compounds (ABCG2 [2]; human, 40 min, 17 μM): 7.9 fold
Fold (BLI enhancement, S/B ratio over control) (ABCG2 [2]; human, 40 min, 17 μM): 7.9 fold
